From US20160185735A1, “FATTY ACID ANALOGS AND THEIR USE” (UNIVERSITY OF PITTSBURGH - OF THE COMMONWEALTH SYSTEM OF …, priority 2013, published 2016)
Several values for one entry are separate records, joined by “and”; a condition that tells them apart may be missing. Equal values may be shown once.

Key:
[1] = system: β-oxidation in heart tissue; assay: Folch-type extraction of 18F signal in heart tissue (oxidized vs unoxidized analog); assay type: in vivo, mice (ICR strain)
Excerpt: FIGS. 9-10 are graphs showing the distribution of ^18F signal in heart tissue taken from fasted mice (ICR strain) administered the ^18F-labeled oleate analog (compound Va). Folch-type extraction was used to separate “Organic” (unoxidized analog) from “Pellets” and “Aqueous” (oxidized fatty acid metabolites).

[2] = Tissue biodistribution of 18F-labeled tracers postinjection; assay type: in vivo, mice (ICR strain); conditions: for background muscle uptake: 0.5 and 2 hours postinjection
Experimental: FIGS. 11 and 12 are graphs showing biodistribution of ^18F-labeled FTO (“FTO,” left bar, Compound I) and the ^18F-labeled oleate analog (“clicked FTO,” right bar, compound Va) at 0.5 hours (FIG. 11) and 2 hours (FIG. 12) postinjection into mice (ICR strain). Similar to ^18F-FTO, the ^18F-labeled oleate analog has low background muscle uptake at 0.5 and 2 hours postinjection.
FIG. 14 is a table showing tissue biodistribution of ^18F-labeled-Oleate analog (compound Va) in mice (ICR strain).

[3] = system: PCa cells; conditions: cited from earlier work
[4] = system: Ehrlich ascites tumor cells; conditions: injected directly into the peritoneal fluid; cited from earlier work
[5] = system: β-oxidation (myocardial uptake); assay: Blockage of β-oxidation / myocardial uptake with etomoxir; assay type: in vivo, mice
Excerpt: FIG. 13 is a graph showing the blockage of β-oxidation of ^18F-labeled FTO (“FTO,” left bar, Compound I) and the ^18F-labeled oleate analog (“clicked FTO,” right bar, compound Va) with etomoxir.

[6] = system: PC3 xenografts; assay: Small animal PET/CT imaging of tracer uptake in PC3 xenografts; assay type: in vivo, mice; conditions: 2 hours postinjection, listed as 18F-clicked-FTO
Experimental: Small animal PET/CT imaging was performed as previously described (Sprague et al., Clin. Cancer. Res. 2004, 10 (24), 8674-8682). Briefly, the ^18F-clicked palmitate or ^18F-clicked oleate analog (3.7 MBq) was injected via tail vein and the mouse was imaged at 2 hours postinjection. Static imaging was performed on an Inveon PET/CT scanner (Constantinescu et al., Phys. Med. Biol., 54, 2885-2899, 2009; Kemp et al., Phys. Med. Biol., 54, 2359-2376, 2009) with 10 min PET scanning followed by a 5 min CT. Inveon Research Workplace (IRW) from Siemens Healthcare Global was used for co-registration of PET/CT images and quantification of regions of interest (ROI). PET/CT images were reconstructed with maximum a posteriori (MAP), 3D ordered-subset expectation maximization (OSEM3D), 2D ordered-subset expectation maximization (OSEM2D), and filtered back projection (2DFBP). Standard uptake values (SUV) were generated by measuring ROI from PET/CT images and calculated with the formula: SUV=[nCi/ml]×[animal weight (g)]/injected dose [nCi]. FDG was injected intraperitoneally 36 hours pre-injection. 2-DG was injected intraperitoneally 4 hours pre-injection. […]

[7] = system: PC3 cells; assay: Post-fix click fluorescence microscopy of alkyne fatty acid uptake; assay type: cell-based; conditions: fixed, permeated, stained with sulfo-Cy3-azide
Experimental: Cells were treated with Alkyn-4-Thia-Palmitate, Alkyn-Palmitate, or control. The cells were then fixed, and incubated with sulfo-Cy3 azide to detect the trapped fatty acid analog.
This example illustrates in vitro analysis of fatty acid metabolism using the disclosed compounds. Cells were incubated with a fatty acid analog including a terminal alkyne group, fixed, and then treated with sulfo-Cy3-azide. The sulfo-Cy3-azide undergoes a click chemistry reaction (a 1,3-dipolar cycloaddition) with the terminal […] of the fatty acid homolog in the fixed cells to form a triazole ring linked to the fatty acid analog. The Cy3 moiety is then detected by fluorescence microscopy.
• 1. Place approximately 500 PC3 cells on coverslip in 24 well plates. • 2. Starve the cell with 250 μL of glucose free media overnight. • 3. Replace the media before the experiment with fresh 250 μL of glucose free media. • 4. Add alkyne fatty acid to the selected wells with coverslip and 1% BSA 10 μL in the control well and incubate at 37° C. for 1 or 2 h. • 5. After respective time wash the cells with 500 μL of 1% BSA for 3×5 min to remove extra fatty acid. • 6. Fix the cells with 300 μL of 4% paraformaldehyde (PFA) for 15 min • 7. Wash the cells once with PBS. • 8. […] Mount the coverslip and analyze by fluorescence microscopy. […]

## CCOC(=O)[C@@]1(CCCCCCOc2ccc(Cl)cc2)CO1 [Etomoxir, reference compound]
[1]; fasted mice given compound Va
  effect on extent of β-oxidation of the 18F-labeled oleate analog in heart tissue: reduced the extent of the β-oxidation

## O=C(O)CCSCCCC/C=C\CCCCCCCC[18F] [FTO, [^18F]Fluoro-4-thia-oleic acid, reference compound]
[2]
  background muscle uptake: low

## [3H]C(CCCCCC)C([3H])CCCCCCCC(=O)O (centres unmarked) [^3H-palmitic acid]
[3]
  uptake in PCa cells compared with 2-DG: dominant uptake

## O=C[C@H](O)[C@@H](O)[C@H](O)[C@H](O)CO [^14C-glucose]
[4]
  incorporation into Ehrlich ascites tumor cells / cellular lipids: 1%

## O=C(O)CCSCCCC/C=C\CCCCCCCc1cn(CC[18F])nn1 [compound Va, (Z)-3-((13-(1-(2-[^18F]fluoroethyl)-1H-1,2,3-triazol-4-yl)tridec-5-en-1-yl)thio)propanoic acid]
[1]; fasted mice, Organic (unoxidized) vs Pellets and Aqueous (oxidized metabolites)
  oxidation of the analog in heart tissue over time: more of the fatty acid analog was oxidized
[2]
  background muscle uptake: low
[2]; 0.5 hours postinjection
  in vivo defluorination relative to 18F-FTO: significantly less
[2]; 2 hours postinjection
  in vivo defluorination relative to FTO: significantly inhibited
[2]; mice, postinjection
  myocardial uptake relative to 18F-FTO: lower than the ^18F-FTO
[5]
  myocardial uptake, blockage with etomoxir: can be blocked with etomoxir
[6]; 2-DG and FDG treated mice, 3.7 MBq via tail vein
  uptake in the tumor (SUV): 0.21 and 0.22
[6]; control group not treated with 2-DG and FDG
  uptake in the tumor (SUV): 0.15 and 0.18

## ^14C-palmitate
[4]
  incorporation into Ehrlich ascites tumor cells / cellular lipids: 40-50%

## alkyn-4-thia-palmitate
[7]
  uptake by PCa cells: avidly take up
